Data taken from US20150080438A1, “6,7-Dihydro-5H-benzo[7]annulene derivatives, processes for their preparation, pharmaceutical products comprising them and their use for preparing medicaments” (Bayer Intellectual Property GmbH, priority 2011, published 2015).
pIC50: −log10 of the molar value.

biological target: T1, oestrogen receptor (ER) (Homo sapiens, UniProt P03372); experiment: Anti-oestrogenic action in MVLN cells (inhibition of estradiol-induced luciferase, transactivation antagonism); type: cell-based; conditions: inhibition of estradiol-induced luciferase activity, read-out: Anti-oestrogenic action in vitro: MVLN transactivation antagonism IC50
T1 construct: These MVLN cells express, along with the functional oestrogen receptor (ER), a reporter construct; endogenous in cells; host or cells: MVLN cells (MCF7 derivative with ER-responsive luciferase reporter)
T1 sequence (P03372 1-595): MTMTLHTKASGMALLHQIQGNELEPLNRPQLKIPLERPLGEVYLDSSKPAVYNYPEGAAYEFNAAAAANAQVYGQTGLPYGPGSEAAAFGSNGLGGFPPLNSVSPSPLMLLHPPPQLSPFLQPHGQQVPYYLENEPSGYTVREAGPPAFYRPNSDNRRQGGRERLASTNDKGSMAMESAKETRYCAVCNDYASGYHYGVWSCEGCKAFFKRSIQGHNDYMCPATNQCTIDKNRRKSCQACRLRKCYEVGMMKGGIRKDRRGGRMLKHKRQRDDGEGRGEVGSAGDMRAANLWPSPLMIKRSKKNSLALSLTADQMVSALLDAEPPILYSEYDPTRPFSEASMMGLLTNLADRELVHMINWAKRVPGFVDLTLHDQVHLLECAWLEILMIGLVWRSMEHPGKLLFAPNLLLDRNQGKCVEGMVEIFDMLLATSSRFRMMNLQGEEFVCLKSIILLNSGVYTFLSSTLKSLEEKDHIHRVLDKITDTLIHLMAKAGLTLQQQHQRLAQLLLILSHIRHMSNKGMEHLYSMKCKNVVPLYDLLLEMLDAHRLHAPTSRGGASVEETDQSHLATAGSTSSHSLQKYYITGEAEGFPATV
Excerpt: The anti-oestrogenic action of the claimed pharmacological compounds was investigated in so-called MVLN cells in vitro. MVLN cells are derivatives of the hormone-responsive MCF7 breast cancer cells known by a person skilled in the art. These MVLN cells express, along with the functional oestrogen receptor (ER), a reporter construct, which under ER-activation expresses luciferase. Determination of the activity of the induced luciferase permits a direct conclusion on the oestrogen properties of substances. To investigate the anti-oestrogenic properties of the pharmacological compounds, they were investigated in the presence of oestrogen for their potential for inhibiting the luciferase signal induced by estradiol.
The claimed pharmacological test substances were investigated in MVLN cells for their anti-oestrogenic potential, as described (see Table 2).

Structure (SMILES)	pIC50
CN(CCCCCCC1=C(c2ccccc2)CCCc2c1ccc(O)c2Cl)CCCCS(=O)(=O)CCC(F)(F)F [Example 109, 4-Chloro-9-[6-(methyl{4-[(3,3,3-trifluoropropyl)sulphonyl]butyl}amino)hexyl]-8-phenyl-6,7-dihydro-5H-benzo[7]annulen-3-ol]	7.06
O=S(=O)(CCCN(CCO)CCCCCCC1=C(c2ccccc2)CCCc2cc(O)ccc21)CCC(F)(F)F [Example 79, 9-{6-[(2-Hydroxyethyl){3-[(3,3,3-trifluoropropyl)sulphonyl]propyl}amino]hexyl}-8-phenyl-6,7-dihydro-5H-benzo[7]annulen-3-ol]	8.05
CN(CCCCCC1=C(c2cccc(O)c2)CCCc2cc(O)ccc21)CCCCS(=O)(=O)CCC(F)(F)F [Example 112, 8-(3-Hydroxyphenyl)-9-[5-(methyl{4-[(3,3,3-trifluoropropyl)sulphonyl]butyl}amino)pentyl]-6,7-dihydro-5H-benzo[7]annulen-3-ol]	7.35
CN(CCCCCCC1=C(c2ccc(F)c(O)c2)CCCc2c1ccc(O)c2F)CCCCS(=O)(=O)CCCC(F)(F)F [Example 118, 4-Fluoro-8-(4-fluoro-3-hydroxyphenyl)-9-[6-(methyl{4-[(4,4,4-trifluorobutyl)sulphonyl]butyl}amino)hexyl]-6,7-dihydro-5H-benzo[7]annulen-3-ol]	8.05
CN(CCCCCCC1=C(c2ccc(F)c(O)c2)CCCc2cc(O)c(F)cc21)CCCCS(=O)(=O)CCCC(F)(F)C(F)(F)F [Example 121, 2-Fluoro-8-(4-fluoro-3-hydroxyphenyl)-9-[6-(methyl{4-[(4,4,5,5,5-pentafluoropentyl)sulphonyl]butyl}amino)hexyl]-6,7-dihydro-5H-benzo[7]annulen-3-ol]	8.15
CN(CCCCCC1=C(c2cccnc2)CCCc2cc(O)ccc21)CCCS(=O)(=O)CCCC(F)(F)C(F)(F)F [Example 41, 9-[5-(Methyl{3-[(4,4,5,5,5-pentafluoropentyl)sulphonyl]propyl}amino)pentyl]-8-(3-pyridyl)-6,7-dihydro-5H-benzo[7]annulen-3-ol]	6.96
CN(CCCCCCC1=C(c2ccc(F)c(O)c2)CCCc2c1ccc(O)c2F)CCCC[S+]([O-])CCC(F)(F)F (racemic) [Example 120, 4-Fluoro-8-(4-fluoro-3-hydroxyphenyl)-9-[6-(methyl{4-[(RS)-(3,3,3-trifluoropropyl)sulphinyl]butyl}amino)hexyl]-6,7-dihydro-5H-benzo[7]annulen-3-ol]	8.30
CN(CCCCCCS(=O)(=O)CCCC(F)(F)C(F)(F)F)CCCCCC1=C(c2cccc(O)c2)CCCc2cc(O)ccc21 [Example 11, 8-(3-Hydroxyphenyl)-9-[5-(methyl{6-[(4,4,5,5,5-pentafluoropentyl)sulphonyl]hexyl}amino)pentyl]-6,7-dihydro-5H-benzo[7]annulen-3-ol]	8.40
CN(CCCCCC1=C(c2cccc(O)c2)CCCc2cc(O)ccc21)CCCCCS(=O)(=O)CCCC(F)(F)C(F)(F)F [Example 9, 8-(3-Hydroxyphenyl)-9-[5-(methyl{5-[(4,4,5,5,5-pentafluoropentyl)sulphonyl]pentyl}amino)pentyl]-6,7-dihydro-5H-benzo[7]annulen-3-ol]	8.10
CN(CCCCCCC1=C(c2ccc(F)c(O)c2)CCCc2cc(O)c(F)cc21)CCCS(=O)(=O)CCC(F)(F)F [Example 126, 2-Fluoro-8-(4-fluoro-3-hydroxyphenyl)-9-[6-(methyl{3-[(3,3,3-trifluoropropyl)sulphonyl]propyl}amino)hexyl]-6,7-dihydro-5H-benzo[7]annulen-3-ol]	7.49
CN(CCCCCCC1=C(c2ccc(F)c(O)c2)CCCc2c1ccc(O)c2F)CCCS(=O)(=O)CCCC(F)(F)C(F)(F)F [Example 114, 4-Fluoro-8-(4-fluoro-3-hydroxyphenyl)-9-[6-(methyl{3-[(4,4,5,5,5-pentafluoropentyl)sulphonyl]propyl}amino)hexyl]-6,7-dihydro-5H-benzo[7]annulen-3-ol]	7.70
CN(CCCCCCC1=C(c2ccc(F)c(O)c2)CCCc2c1ccc(O)c2F)CCCCS(=O)(=O)CCCC(F)(F)C(F)(F)F [Example 117, 4-Fluoro-8-(4-fluoro-3-hydroxyphenyl)-9-[6-(methyl{4-[(4,4,5,5,5-pentafluoropentyl)sulphonyl]butyl}amino)hexyl]-6,7-dihydro-5H-benzo[7]annulen-3-ol]	7.96
CC(C)(O)CN(CCCCCCC1=C(c2ccc(F)c(O)c2)CCCc2cc(O)c(F)cc21)CCC[S+]([O-])CCC(F)(F)F (racemic) [Example 129, 2-Fluoro-8-(4-fluoro-3-hydroxyphenyl)-9-{6-[(2-hydroxy-2-methylpropyl){3-[(RS)-(3,3,3-trifluoropropyl)sulphinyl]propyl}amino]hexyl}-6,7-dihydro-5H-benzo[7]annulen-3-ol]	8.40

The next molecules have a higher pIC50 than those just listed; values first:

pIC50	Structure (SMILES)
8.52	CN(CCCCCCC1=C(c2ccccc2)CCCc2cc(O)ccc21)CCCCS(=O)(=O)CCCC(F)(F)C(F)(F)F [Example 67, 9-[6-(Methyl{4-[(4,4,5,5,5-pentafluoropentyl)sulphonyl]butyl}amino)hexyl]-8-phenyl-6,7-dihydro-5H-benzo[7]annulen-3-ol]
8.52	CN(CCCCCC1=C(c2ccc(O)c(F)c2)CCCc2cc(O)ccc21)CCCSCCCC(F)(F)C(F)(F)F [Example 36, 8-(3-Fluoro-4-hydroxyphenyl)-9-[5-(methyl{3-[(4,4,5,5,5-pentafluoropentyl)sulphanyl]propyl}amino)pentyl]-6,7-dihydro-5H-benzo[7]annulen-3-ol]
8.70	COCCN(CCCCCCC1=C(c2ccc(F)c(O)c2)CCCc2cc(O)ccc21)CCCS(=O)(=O)CCCC(F)(F)C(F)(F)F [Example 105, 8-(4-Fluoro-3-hydroxyphenyl)-9-{6-[(2-methoxyethyl){3-[(4,4,5,5,5-pentafluoropentyl)sulphonyl]propyl}amino]hexyl}-6,7-dihydro-5H-benzo[7]annulen-3-ol]
8.70	CN(CCCCCCC1=C(c2cccc(O)c2)CCCc2cc(O)ccc21)CCC[S+]([O-])CCCC(F)(F)C(F)(F)F (racemic) [Example 12, 8-(3-Hydroxyphenyl)-9-[6-(methyl{3-[(RS)-(4,4,5,5,5-pentafluoropentyl)sulphinyl]propyl}amino)hexyl]-6,7-dihydro-5H-benzo[7]annulen-3-ol]
8.70	CN(CCCCCCC1=C(c2cccc(O)c2)CCCc2cc(O)ccc21)CCCCCC[S+]([O-])CCCC(F)(F)C(F)(F)F (racemic) [Example 18, 8-(3-Hydroxyphenyl)-9-[6-(methyl{6-[(RS)-(4,4,5,5,5-pentafluoropentyl)sulphinyl]hexyl}amino)hexyl]-6,7-dihydro-5H-benzo[7]annulen-3-ol]
9.00	[O-][S+](CCCN(CCO)CCCCCCC1=C(c2cccc(O)c2)CCCc2cc(O)ccc21)CCCC(F)(F)C(F)(F)F (racemic) [Example 87, 9-{6-[(2-Hydroxyethyl){3-[(RS)-(4,4,5,5,5-pentafluoropentyl)sulphinyl]propyl}amino]hexyl}-8-(3-hydroxyphenyl)-6,7-dihydro-5H-benzo[7]annulen-3-ol]
9.00	[O-][S+](CCCN(CCCO)CCCCCCC1=C(c2cccc(O)c2)CCCc2cc(O)ccc21)CCCC(F)(F)C(F)(F)F (racemic) [Example 88, 8-(3-Hydroxyphenyl)-9-{6-[(3-hydroxypropyl){3-[(RS)-(4,4,5,5,5-pentafluoropentyl)sulphinyl]propyl}amino]hexyl}-6,7-dihydro-5H-benzo[7]annulen-3-ol]
